{"source": "ChEMBL document CHEMBL1132333", "about": "“Synthesis and enantiomeric separation of 2-phthalimidino-glutaric acid analogues: potent inhibitors of tumor metastasis” (1999)"}
{"tested_on": "Mus musculus", "assay": "Compound (0.4 mmol/Kg) was evaluated for its ability to inhibit B16BL6 pulmonary metastasis in mice. The number of lung metastases of treated (T) and nontreated or control (C) is expressed as ratio, T/C.", "assay_type": "functional"}
{"molecule": "O=C(O)CCC(C(=O)O)N1Cc2ccc(O)cc2C1=O", "note": "(configuration not stated)", "T/C": 0.9}
{"molecule": "O=C(O)CCC(C(=O)O)N1Cc2ccccc2C1=O", "note": "(configuration not stated)", "T/C": 0.2}
{"molecule": "CC(CCC(=O)O)(C(=O)O)N1Cc2ccccc2C1=O", "note": "(configuration not stated)", "T/C": 0.25}
{"molecule": "O=C(O)CCC(C(=O)O)N1Cc2cccc(O)c2C1=O", "note": "(configuration not stated)", "T/C": 0.95}
{"molecule": "C[C@@](CCC(=O)O)(C(=O)O)N1Cc2ccccc2C1=O", "T/C": 0.7}
{"molecule": "C[C@](CCC(=O)O)(C(=O)O)N1Cc2ccccc2C1=O", "T/C": 0.15}
{"molecule": "O=C1CCC(N2C(=O)c3ccccc3C2=O)C(=O)N1", "note": "(configuration not stated) [THALIDOMIDE]", "T/C": 0.9}
